{"source": "patent US6649366B2", "about": "“Methods and compositions related to modulators of annexin and cartilage homeostasis” (SmithKline Beecham Corporation, priority 1999, dated 2003)", "key": {"[1]": {"system": "embryonic avian tibias", "assay": "LPS-induced cartilage degradation in tibia organ cultures", "format": "cell-based, Chick", "method": "The purpose of this study was to test the ability of calcium channel blocker BDA to inhibit cartilage degradation in embryonic avian tibias maintained in organ culture in the presence of lipopolysaccharide (LPS). Chick tibiotarsi were removed from 12 day embryos and their tarsal regions removed. These bones were maintained in organ culture as previously described (26-28). Four bones were placed in each well of a 24-well plate and cultured in 1 ml of DMEM supplemented with 50 μg/ml ascorbate and 10 μg/ml LPS (E. coli serotype 0111 :B4, catalog #L-3012, Sigma, St. Louis). The culture medium with fresh supplements was changed every other day. BDA was dissolved in DMSO at a stock concentration of 2 mM. BDA was added to the culture medium on all feeding days and tested at two concentrations, 0.5 and 2 μM. Control cultures received an equivalent concentration of DMSO. The loss of cartilage from the embryonic bones was measured as the release of proteoglycans and collagen (hydroxyproline) into the culture medium. The spent culture medium was collected with each medium change. The proteoglycan content of the culture medium was determined by a dimethyl methylene blue dye-binding assay (25). The hydroxyproline was measured by a colorimetric assay in 96 well plates (29)."}, "[2]": {"system": "OP-1", "assay": "endogenous OP-1 in IL-1β challenged cartilage explants (western blot)", "format": "cell-based, human", "method": "Full thickness articular cartilage was dissected from load bearing regions of the femoral condyles of donors with no history of joint disease within 24 hours of death. Samples from men and women (age 50 to 76) were obtained from the Regional Organ Bank of Illinois as described above. After opening the joint, the surface of the cartilage was examined grossly. The appearance of each joint was given a grade based on the Collins scale (30) as modified by Muehleman et al (31).\nTissue explants (3×3 mm) were prepared as described above and were cultured in Dulbecco's modified Eagle's medium/Hams' F12 (1/1) containing 10 ml/L of Insulin Transferrin Selenium A (ITS, Gibco), 25 μg/ml ascorbate, and 50 μg/ml gentamicin. Experimental cultures contained either recombinant human IL-1β (Genzyme), BDA compound in DMSO, or a combination of IL-1β and BDA. ITS containing medium was used to reduce or eliminate serum-contained growth factors that could mask the released OP-1 or OP-1 degradation products and create nonspecific binding of the antibodies. To reach a steady state, cartilage explants were cultured in the absence of IL-1β or BDA for 4 days (or 96 hours) followed by two days (or 48 hours) of culture with IL-1β, BDA or both IL-1β and BDA. DMSO was added to the media control groups to account for a possible effect of DMSO.\nArticular cartilage explants were briefly washed with 0.9% saline, homogenized and extracted in 1 M guanidine hydrochloride in the presence of proteinase inhibitors (0.1 M ε-aminocaproic acid, 0.05 M sodium acetate, 0.005 M EDTA, 0.005 M benzamidine chloride, 0.01 M N-ethylmaleimide, 0.0005 M phenymethanesulfonyl fluoride) at pH 7.4. Samples were extracted for 3 h in the refrigerator, and the extracts, together with the media, were dialyzed against water for 48 hours at 2-8° C., lyophilized and solubilized in sample buffer (0.01 M Tris HCl, pH 6.5, 1% sodium dodecyl sulfate (SDS), 10% glycerol, 0.016% bromphenol blue, 8 M urea, 0.2 M sodium chloride with (for the reduced conditions) or without (for non-reduced conditions) dithioerythritol added (DTT), pH 6.8). Cartilage extracts and media were analyzed by western blotting. All samples were normalized to the protein concentration. Protein concentrations was determined by a colorimetric assay, using BSA as a standard (Pierce, Rockford, Ill.).\nAliquots of samples (30 μg of protein per lane) were analyzed by electrophoresis and immunoblotting. Samples were loaded onto a 12% SDS-polyacrylamide gel (PAGE) in a buffer containing 0.2 M glycine, 25 mM Tris and 3.5 mM SDS. Proteins were transferred from SDS-PAGE gels onto nitrocellulose transfer membranes overnight at 20 V, 4-8° C. in a buffer containing 12 mM Tris (pH 7.4), 6 mM Na acetate, and 0.3 mM EDTA at pH 7.4. Immunoblot analyses was done using OP-1 antibodies. […]"}, "[3]": {"biological_target": "T1, annexin III (Homo sapiens, UniProt P12429)", "T1 sequence (P12429 1-323)": "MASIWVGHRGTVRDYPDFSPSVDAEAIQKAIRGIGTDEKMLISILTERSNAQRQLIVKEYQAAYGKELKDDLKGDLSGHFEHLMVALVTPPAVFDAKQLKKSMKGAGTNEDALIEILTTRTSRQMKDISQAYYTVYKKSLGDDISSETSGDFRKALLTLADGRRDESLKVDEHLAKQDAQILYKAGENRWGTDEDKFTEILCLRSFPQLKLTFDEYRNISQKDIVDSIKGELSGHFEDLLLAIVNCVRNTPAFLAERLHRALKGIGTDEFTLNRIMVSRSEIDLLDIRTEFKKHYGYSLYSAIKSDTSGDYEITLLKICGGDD", "conditions": "liposomes; cited from earlier work"}, "[4]": {"biological_target": "T2, annexin V (Homo sapiens, UniProt P08758)", "T2 sequence (P08758 1-320)": "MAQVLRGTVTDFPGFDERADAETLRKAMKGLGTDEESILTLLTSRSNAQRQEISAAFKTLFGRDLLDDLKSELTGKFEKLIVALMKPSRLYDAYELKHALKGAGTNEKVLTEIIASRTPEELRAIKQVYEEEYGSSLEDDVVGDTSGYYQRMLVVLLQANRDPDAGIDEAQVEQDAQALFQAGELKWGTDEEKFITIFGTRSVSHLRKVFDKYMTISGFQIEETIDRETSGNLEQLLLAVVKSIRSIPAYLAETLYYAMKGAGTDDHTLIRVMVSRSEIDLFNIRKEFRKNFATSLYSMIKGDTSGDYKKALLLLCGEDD", "conditions": "liposomes; cited from earlier work"}, "[5]": {"biological_target": "T3, annexin I (Homo sapiens, UniProt P04083)", "T3 sequence (P04083 1-346)": "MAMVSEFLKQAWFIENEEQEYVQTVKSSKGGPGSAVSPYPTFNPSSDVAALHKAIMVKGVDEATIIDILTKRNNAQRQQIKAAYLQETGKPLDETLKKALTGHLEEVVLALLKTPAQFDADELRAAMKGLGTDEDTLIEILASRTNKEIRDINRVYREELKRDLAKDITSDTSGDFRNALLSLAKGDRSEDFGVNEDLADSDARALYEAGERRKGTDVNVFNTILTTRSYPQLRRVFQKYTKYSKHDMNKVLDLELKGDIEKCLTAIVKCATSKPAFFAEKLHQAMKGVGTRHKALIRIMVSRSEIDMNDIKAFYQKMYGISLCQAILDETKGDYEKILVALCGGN", "conditions": "liposomes; cited from earlier work"}, "[6]": {"biological_target": "T2, annexin V", "assay": "calcium ion flux assay in artificial vesicles containing annexin V (Calcium Green fluorescence)", "format": "biochemical", "conditions": "180 ug/ml Annexin V, 100 ug/ml CII Peptide where present, 2 hours", "method": "Artifical vesicles containing annexin were prepared according to methods known in the art. Specifically, vesicles were prepared by drying down lipids (Avanti Polar Lipids) with nitrogen overlay. Lipids were washed once in ether and further dried under vacuum overnight. Lipids were then sonicated on ice in NMDG Buffer (150 mM N Methyl D Glucamine, and 10 mM Hepes, adjusted to ph 7.4 with HCl, then diluted to 100 mOSM with water) containing 300μM Calcium Green dye (Molecular Probes). Extravesicular dye was removed by Biobead extraction for 20 minutes.\nVesicles were diluted 1:100 in NMDG Buffer, mixed with Annexin V with or without collagen fragments (CII peptide), and incubated for 2 hours. Ca^++ fluxes were measured according to Kaneko et al.. Fluorescence was measured in a 96 well plate using the Flipr plate reader."}}, "note": "“Also recorded” adds a separate entry of the source.", "data": [{"molecule": "CN1C(=O)C(NC(=O)C(N)Cc2c[nH]c3ccccc23)C=C(c2ccccc2)c2ccccc21", "note": "(centres unmarked) [BDA]", "values": [{"measurement": "LPS induced proteoglycan release to the culture medium", "setting": "[1]; 0.5 μM, compared to DMSO carrier control", "value": "intermediate loss; also recorded: intermediate amount"}, {"measurement": "LPS induced collagen (hydroxyproline) release", "setting": "[1]; 0.5 μM, feeding day 15", "value": "intermediate degree of collagen release"}, {"measurement": "LPS induced proteoglycan release to the culture medium", "setting": "[1]; 2 μM", "value": "least release"}, {"measurement": "LPS induced collagen (hydroxyproline) release", "setting": "[1]; 2 μM, feeding day 15", "value": "least collagen loss"}, {"measurement": "LPS induced cartilage loss (release of hydroxyproline or proteoglycan)", "setting": "[1]; 0.5 and 2 μM, dose dependence", "value": "dose-dependent inhibition"}, {"measurement": "LPS induced collagen (hydroxyproline) release", "setting": "[1]; 0.5 and 2 μM, dose dependence", "value": "dose-dependent inhibition"}, {"measurement": "LPS induced proteoglycan release to the culture medium", "setting": "[1]; 0.5 and 2 μM, dose dependence", "value": "dose-dependent inhibition"}, {"measurement": "size of the bone and cartilage at the end of the experiments", "setting": "[1]; LPS cultures", "value": "increased size of the bone and cartilage"}, {"measurement": "release of pro-OP-1 domain", "setting": "[2]; culture media", "value": "enhanced the release of pro-OP-1 domain"}, {"measurement": "release of pro-OP-1 into culture media", "setting": "[2]; day 2 of culture", "value": "dramatic release of pro-OP-1"}, {"measurement": "content of endogenous OP-1 in cartilage", "setting": "[2]; human cartilage explants, IL-1 culture, 48 hours", "value": "increase in the content of endogenous OP-1; also recorded: increase in the content of endogenous anabolic factor"}, {"measurement": "processing of endogenous OP-1 from pro- into mature form", "setting": "[2]; human cartilage under catabolic conditions", "value": "processing of cartilage endogenous OP-1 from pro- into mature form"}]}, {"molecule": "CN1C(=O)CN=C(c2ccccc2)c2ccccc21", "note": "[BDA 250, 1,3-dihydro-1-methyl-5-phenyl-2H-1,4-benzodiazepine-2-one]", "values": [{"measurement": "calcium fluxes induced by annexin III", "setting": "[3]", "value": "inhibited"}, {"measurement": "calcium fluxes induced by annexin V", "setting": "[4]", "value": "no effect"}, {"measurement": "calcium fluxes induced by annexin I", "setting": "[5]", "value": "inhibited"}]}, {"molecule": "Annexin V: calcium and phospholipid binding protein mixed with vesicles", "values": [{"measurement": "Fluorescence (Calcium Signal)", "setting": "[6]; Lipid Ratio 65% PS/12.5% PC/12.5% PE/5% Chol", "value": 29023}, {"measurement": "Fluorescence (Calcium Signal)", "setting": "[6]; Lipid Ratio 70% PS/12.5% PC/12.5% PE", "value": 46454}]}]}
